Test results: patent US4101662A, “Method for inhibiting emesis and compositions therefor” (priority 1973, dated 1978)
Structures can show the parent of a compound that is named as a salt. Where two headings read alike, the source gives them in different places.

Tested on: emetic effect of apomorphine
Assay: Antiemetic activity (IM) against apomorphine-induced emesis in unanesthetized dogs, ED50
Assay type: in vivo
Settings: for ED50: Canis lupus familiaris
Description: Description of this invention will therefore be made with especial emphasis on 4-(p-fluorobenzoyl)-1-[3-(p-fluorobenzoyl)propyl]piperidine hydrochloride, it being understood that the principles and practices involved are applicable to the other compounds of the formula first hereinabove set forth. The antiemetic activity of the compounds was determined by the following standard pharmacological tests.
The compounds were administered intramuscularly (IM) to unanesthetized dogs in the caudal muscles (left hind leg) and thirty minutes later they received apomorphine hydrochloride (0.1 mg./kg. s.c.). The compounds were administered in micrograms (mcg.) at several dose levels and the percent reduction in frequency of emesis relative to controls determined. From the data the ED50 in micrograms was determined.

[1] = IM, unanesthetized dogs, 30 minutes before apomorphine hydrochloride 0.1 mg/kg s.c., reduction in frequency of emesis relative to controls, read-out: ED50 and 95% Confidence Limits

Work on `O=C(CCCN1CCC(C(=O)c2ccc(Cl)cc2)CC1)c1ccc(F)cc1` [Example 3, 4-(p-Chlorobenzoyl)-1-[3-(p-fluorobenzoyl)propyl]piperidine Hydrochloride] yielded an ED50 [1] of 0.077 mg/kg.
With `O=C(CCCN1CCC(C(=O)c2ccc(Cl)cc2)CC1)c1ccc(Cl)cc1` [Example 4, 4-(p-chlorobenzoyl)-1-[3-(p-chlorobenzoyl)propyl]piperidine Hydrochloride] the “ED50 and 95% Confidence Limits (Estimated Values)” value (IM, unanesthetized dogs, 30 minutes before apomorphine hydrochloride 0.1 mg/kg s.c., footnote a: estimated values) was ~1401.0 (796-2468) mcg/kg.
`O=C(CCCN1CCC(C(=O)c2ccc(F)cc2)CC1)c1ccc(Cl)cc1` [Example 2, 4-(p-Fluorobenzoyl)-1-[3-(p-chlorobenzoyl)propyl]piperidine Hydrochloride] showed an ED50 [1] of 0.06 mg/kg.
`OC(CCCN1CCC(C(O)c2ccc(F)cc2)CC1)c1ccc(F)cc1` (stereo not drawn) [Example 10, 4-(p-Fluoro-α-hydroxybenzyl)-1-[3-(p-fluoro-α-hydroxy)propyl]piperidine] gave an ED50 (IM, unanesthetized dogs, 30 minutes before apomorphine hydrochloride 0.1 mg/kg s.c., footnote b: graphic estimate, vehicle 80% polyethylene glycol 300 and 20% water, read-out: ED50 (value obtained from a graphic estimate)) of about 1 mg/kg.
Work on `O=C(CCCN1CCC(C(O)c2ccc(F)cc2)CC1)c1ccc(F)cc1` (stereo not drawn) [Example 9, 4-(p-Fluoro-α-hydroxybenzyl)-1-[3-(p-fluorobenzoyl)propyl]piperidine] yielded an ED50 (im, read-out: ED50 and 95% Confidence Limits) of 0.132 mg/kg.
In the case of `O=C(CCCN1CCC(C(=O)c2ccc(F)cc2)CC1)c1ccc(F)cc1` [Example 1, 4-(p-Fluorobenzoyl)-1-[3-(p-fluorobenzoyl)propyl]piperidine Hydrochloride], the ED50 [1] is reported as 0.0083 mg/kg.
